Measured values as given in patent US20180021373A1, “Ruthenium and Indium Binding to Gastrins” (EUPHARMA PTY LTD, priority 2015, published 2018).
Like-named read-outs stand apart in the source and are kept apart here.

Legend:
progastrin = biological target: T1, progastrin (Homo sapiens, UniProt P01350); details: competition with ^59Fe^3+ ions (Baldwin 2004); cited from earlier work
T1 sequence (P01350 27-101 limits assumed): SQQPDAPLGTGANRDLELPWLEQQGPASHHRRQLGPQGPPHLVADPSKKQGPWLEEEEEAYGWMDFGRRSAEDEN

Ggly [1] = biological target: T2, Ggly (Homo sapiens, UniProt P01350); details: 20 equivalents; WO 2004/089976; cited from earlier work
Ggly [2] = biological target: T2, Ggly; details: Ggly binds two Bi^3+ ions at pH 4; read-out: affinity; cited from earlier work
Ggly [3] = biological target: T2, Ggly; details: cited from earlier work; for quenching of Ggly fluorescence: WO 2004/089976; for binding to Ggly: detected by measurement of Ggly fluorescence (Baldwin 2001)
Ggly [4] = biological target: T2, Ggly; assay: Absorption spectroscopy (280 nm) of metal ion binding to Ggly, fitted with BioEqs; details: for A280 (%) for first site / A280 (%) for second site / A280 (%) for mixed FeGastrinM complex: Ggly, percentage absorbance at 280 nm, fitted
Experimental: (§1) Gamide and Ggly (88 and 93% pure, respectively) were purchased from Auspep (Clayton, Australia). The impurities consisted of water and salts. Solutions of metal ions (Aldrich, St. Louis, Mo.) were prepared in 10 mM HCl, and their concentrations determined by inductively coupled plasma-atomic emission spectroscopy at the National Measurement Institute (Pymble, Australia).
(§2) The 280 nm absorption of peptides (10 μM in 10 mM sodium acetate, pH 4.0, containing 100 mM NaCl and 0.005% Tween 20) in the presence of increasing concentrations of metal ions was measured against a buffer blank, in 1 ml quartz cuvettes thermostatted at 298 K, with a Cary 5 spectrophotometer (Varian, Mulgrave, Australia).
(§3) Data (expressed as means±S.E.M.) were fitted to one-site or two-site ordered models (as per FIG. 1) with the program BioEqs.
(§4) New absorption data sets were obtained, and fitted with the program Bioeqs as described in the Materials and Methods section. […] In the 2 site competitive model gastrin binds two ferric ions with dissociation constants Kd1Fe and Kd2Fe, and two metal ions M to the same two sites with dissociation constants Kd1M and Kd2M. The dissociation constant Kd3M describes the formation of the mixed FeGastrinM complex.

Gamide = biological target: T3, Gamide (Homo sapiens, UniProt P01350); assay: Absorption spectroscopy (280 nm) of metal ion binding to Gamide, fitted with BioEqs; details: for A280 (%) for first site / A280 (%) for second site / A280 (%) for mixed FeGastrinM complex: percentage absorbance at 280 nm, fitted
T3 construct: amidated gastrin34 and amidated gastrin17 (Gamide); purchased Auspep (Clayton, Australia)
Experimental: as §1, §2, §3, §4

gastrins = assay: Screen of binding affinities of a range of metals to gastrins
colon = details: infusion into gastrin-deficient mice (Wang 1996); cited from earlier work
[5] = Gamide 10 μM, pH 4.0, 298 K, 2 site model (Fe, Ga) or 2 site competitive model vs Fe^3+ (In, Ru), read-out: Kd1 (first iron binding site)
[6] = Gamide 10 μM, pH 4.0, 298 K, 2 site or 2 site competitive model, read-out: Kd2 (second site)
[7] = read-out: Kd2 (second site), Ggly 10 μM, pH 4.0, 298 K, 2 site or 2 site competitive model
[8] = Gamide, 2 site competitive model, read-out: Kd3 (formation of mixed FeGastrinM complex)

## [Al+3] [Al(III)]
progastrin
  binding to progastrin: does not bind
Ggly [1]
  shift in Ggly NMR signals: nor did 20 equivalents of Al^3+ cause any significant shift in Ggly NMR signals

## [Bi+3] [Bi^3+]
Ggly [2]
  Kd: 5800 nM

## [Ca+2] [Ca(II)]
progastrin
  binding to progastrin: does not bind

## [Co+2] [Co(II)]
Ggly [3]
  quenching of Ggly fluorescence: not quench fluorescence
  binding to Ggly: does not bind
progastrin
  binding to progastrin: does not bind

## [Cr+3] [Cr(III)]
Ggly [3]
  quenching of Ggly fluorescence: not quench fluorescence
  binding to Ggly: does not bind
progastrin
  binding to progastrin: does not bind

## [Cu+2] [Cu(II)]
Ggly [3]
  quenching of Ggly fluorescence: not quench fluorescence
  binding to Ggly: does not bind
progastrin
  binding to progastrin: does not bind

## [Eu+3] [Eu(III)]
progastrin
  binding to progastrin: does not bind

## [Fe+2] [Fe(II)]
progastrin
  binding to progastrin: does not bind

## [Fe+3] [Fe^3+]
Ggly [4]
  A280 (%) for first site: 100.0%
  A280 (%) for second site: 365.9%
Ggly [4]; Kd1 (first iron binding site), Ggly 10 μM, pH 4.0, 298 K, 2 site model (Fe, Ga) or 2 site competitive model vs Fe^3+ (In, Ru)
  Kd: 5.7 nM
Ggly [4]; Kd2 (second site), Ggly 10 μM, pH 4.0, 298 K, 2 site or 2 site competitive model
  Kd: 7 nM
Gamide; [5]
  Kd: 0.3 nM
Gamide; [6]
  Kd: 0.085 nM
Gamide; Gamide
  A280 (%) for first site: 100.0%
  A280 (%) for second site: 313.4%

## [Ga+3] [Ga^3+]
Ggly [4]
  Kd: 17 nM
  A280 (%) for first site: 100.0%
  A280 (%) for second site: 340.2%
Ggly [4]; [7]
  Kd: 2300 nM
Gamide; [5]
  Kd: 330 nM
Gamide; [6]
  Kd: 1100 nM
Gamide; Gamide
  A280 (%) for first site: 100.0%
  A280 (%) for second site: 335.8%
Gamide; Gastrin/Gamide, 2 site model, read-out: dissociation constant (Kd), first site
  Kd: 330 nM
Gamide; Gastrin/Gamide, 2 site model, read-out: dissociation constant (Kd), second site
  Kd: 1100 nM

## [In+3] [In^3+]
Ggly [4]
  Kd: 96 nM
  A280 (%) for first site: 100.0%
  A280 (%) for mixed FeGastrinM complex: 255.6%
  A280 (%) for second site: 72.8%
Ggly [4]; [7]
  Kd: 14000 nM
Gamide; [6]
  Kd: 170 nM
Gamide; [8]
  Kd: 4 nM
Gamide; Gamide
  A280 (%) for first site: 100.0%
  A280 (%) for mixed FeGastrinM complex: 217.7%
  A280 (%) for second site: 74.1%

## [Mn+2] [Mn(II)]
Ggly [3]
  quenching of Ggly fluorescence: not quench fluorescence
  binding to Ggly: does not bind
progastrin
  binding to progastrin: does not bind

## [Ru+3] [Ru^3+]
Ggly [4]
  Kd: 1200 nM
  A280 (%) for first site: 100.0%
  A280 (%) for mixed FeGastrinM complex: 304.1%
  A280 (%) for second site: 1714.8%
Ggly [4]; [7]
  Kd: 360000 nM
Gamide; [6]
  Kd: 12000 nM
Gamide; [8]
  Kd: 17 nM
Gamide; Gamide
  A280 (%) for first site: 100.0%
  A280 (%) for mixed FeGastrinM complex: 264.9%
  A280 (%) for second site: 178.6%

## [Zn+2] [Zn(II)]
progastrin
  binding to progastrin: does not bind

## [Sb] [antimony]
gastrins
  high affinity binding to gastrins: did not show high affinity binding

## [AsH3] [arsenic]
gastrins
  high affinity binding to gastrins: did not show high affinity binding

## ZGPWLEEEEEAYGWMDFamide [gastrin/Gamide]
colon
  increase of colonic proliferative index: no effect
